Assay type in all cases: cell-based, human
In experiment [1] the test system is T2 cells loaded with the corresponding synthetic peptide and HLA-A2+ lung cancer cells lines [CRL-5865, CRL-5944 and NCI-H522]. Description: Interferon-γ ELISpot with peptide-specific CTL from healthy HLA-A2+ donors. The following applies: CTL from PBMC of two healthy HLA-A2+ donors; FIG. 1. The procedure:
(§1) PBMC were purified from HLA-A2^+ normal donor blood using lymphocyte separation media (Cappel ICN Biomedical, Aurora, Ohio). PBMC (5.3×10^6) were added to individual wells of a 24-well cluster plate (Costar, Corning, N.Y.) in 1.0 ml of serum-free AIM-V medium (Life Technologies) and allowed to adhere for 60 min at 37° C. Non-adherent cells were removed and saved as a source of effector T cells. Adherent PBMC (˜8.3×10^5/well) were then pulsed with […] synthetic peptides in serum-free AIM-V medium containing […] β2-microglobulin (Calbiochem-Novabiochem, San Diego, Calif.) and incubated for 2 h at 37° C. Unbound peptides were aspirated and the wells washed with media.
(§2) Monocyte-derived DC were generated as follows. PBMC (5.3×10^7) were allowed to adhere in T-75 flasks (Corning) in 10 ml of serum-free AIM-V medium for 60 min at 37° C. Non-adherent cells were collected as a source of effector T cells and pooled with the previous collection above. Adherent monocytes in flasks were then exposed to recombinant human granulocyte macrophage colony stimulating factor (GM-CSF, 25 ng/ml; Peprotech) and recombinant human IL-4 (100 ng/ml; Peprotech) in 10 ml of AIM-V medium containing 10% heat-inactivated FBS. DC obtained by this method [immature DC (iDC)] are characterized by expression of low levels of CD83, CD80, CD86, and HLA class I and class II molecules (data not shown).
(§3) Mature DC (mDC) were obtained by exposing day 5 DC cultures to recombinant soluble CD40 ligand (sCD40L; Peprotech) at […] for 24 h in the presence of 25 ng/ml GM-CSF and are characterized by expression of high levels of CD80, CD86, and HLA class I and class II molecules.mDC were harvested, washed, pulsed with 5 mg/ml peptide in serum-free AIM-V medium and irradiated (5000 rad) prior to use as stimulators.
(§4) The protocol used here is a modification of the method described by Plebanski et al. (Eur. J. Immunol. 25:1783, (1995)). CTL to peptide were generated by 3±4 cycles of stimulation with peptide-loaded APC. For the first round of stimulation (day 0), T cells or non-adherent PBMC from above (2.3×10^6/ml or 4.3×10^6 per well) were added in bulk (CD4^+, CD8^+, NK, etc.) to adherent PBMC-loaded peptides in serum-free medium ([…]), β2-microglobulin ([…]) (Calbiochem-Novabiochem), recombinant human IL-7 (5 ng/ml) (Peprotech) and keyhole limpet hemocyanin (5 mg/ml) (Sigma, St Louis, Mo.). Cultures were re-stimulated with iDC every 7 days, pulsed with varying amounts of peptide (second round 25 mg/ml, third round 10 mg/ml) and irradiated (5000 rad) on day 8. At each re-stimulation, the T cells were transferred to new plates by first aspirating 70% of spent media in wells and then transferring the pooled contents to a new plate. Fresh IL-7 was added at each re-stimulation. The responder:stimulator (T cell:DC) ratio was set at 20 for each stimulation. Recombinant human IL-2 (10 U/ml) was added on day 5 after each re-stimulation.
(§5) Prior to CTL assays, the T cells were harvested and CD8^+ T cells were purified by positive selection using CD8^+ microbeads immunomagnetic cell separation with MACS kit (Miltenyi Biotec, Auburn, Calif.). If a fourth round of stimulation was necessary following CTL analysis, the CTL were pulsed as before, except with 5±10 mg/ml of peptide.
(§6) The peptide specific CTLs were assessed for recognition and/or lysis of peptide-loaded T2 cells as well as various lung normal and tumor target cells. After two to four rounds of restimulation, cultures were tested for cytotoxic activity against the peptide loaded and normal and tumor targets. Peptide-pulsed T2 cells (1 μg/ml peptide for 2 hr at 37° C.), irrelevant HLA-A2 peptides pulsed T2 cells were used as controls. […]

Experiment [2] has the same test system. Description: Granzyme B ELISpot with peptide-specific CTL from healthy HLA-A2+ donors. The following applies: CTL from PBMC of two healthy HLA-A2+ donors; FIG. 2. The procedure:
as §1, §2, §3, §4, §5, §6

Experiment [3] has the same test system. Description: Granzyme B ELISpot with peptide-specific CTL from a HLA-A2+ lung cancer patient. The following applies: CTL from PBMC of a HLA-A2+ lung cancer patient; FIG. 3B. The procedure: (§7) The protocol used here is a modification of the method described by Plebanski et al. (Eur. J. Immunol. 25:1783, (1995)). CTL to peptide were generated by 3±4 cycles of stimulation with peptide-loaded APC. For the first round of stimulation (day 0), T cells or non-adherent PBMC from above (2.3×10^6/ml or 4.3×10^6 per well) were added in bulk (CD4^+, CD8^+, NK, etc.) to adherent PBMC-loaded peptides in serum-free medium ([…]), β2-microglobulin ([…]) (Calbiochem-Novabiochem), recombinant human IL-7 (5 ng/ml) (Peprotech) and keyhole limpet hemocyanin (5 mg/ml) (Sigma, St Louis, Mo.). Cultures were re-stimulated with iDC every 7 days, pulsed with varying amounts of peptide (second round 25 mg/ml, third round 10 mg/ml) and irradiated (5000 rad) on day 8. At each re-stimulation, the T cells were transferred to new plates by first aspirating 70% of spent media in wells and then transferring the pooled contents to a new plate. Fresh IL-7 was added at each re-stimulation. The responder:stimulator (T cell:DC) ratio was set at 20 for each stimulation. Recombinant human IL-2 (10 U/ml) was added on day 5 after each re-stimulation. […]
(§8) The peptide specific CTLs were assessed for recognition and/or lysis of peptide-loaded T2 cells as well as various lung normal and tumor target cells. […] Recognition of specific antigens by peptide-specific CTL was measured by production of IFN-gamma and granzyme in the ELISPOT assay (Ramakrishna, V., M. M. Ross, M. Petersson, C. C. Gatlin, C. E. Lyons, C. L. Miller, H. E. Myers, M. McDaniel, L. R. Karns, R. Kiessling, G. Parmiani, and D.C. Flyer. (2003) Int Immunol 15:751-763; Morse, M. A., S. K. Nair, P. J. Mosca, A. C. Hobeika, T. M. Clay, Y. Deng, D. Boczkowski, A. Proia, D. Neidzwiecki, P. A. Clavien, H. I. Hurwitz, J. Schlom, E. Gilboa, and H. K. Lyerly. (2003) Cancer Invest 21:341-349). […]
PBMC from a HLA-A2^+ lung cancer patient were in vitro stimulated with synthetic peptides corresponding to each of the three selected lung cancer epitopes (SEQ ID 82, SEQ ID 34 and SEQ ID 67). […] Granzyme B producing cells were quantitated using an Immunospot reader. […]

Experiment [4] shares this test system. Description: Interferon-γ ELISpot with peptide-specific CTL from a HLA-A2+ lung cancer patient. The following applies: CTL from PBMC of a HLA-A2+ donor with lung cancer; FIG. 3A. The procedure: as §7, with “stimulation.” for “stimulation. Recombinant human IL-2 (10 U/ml) was added on day 5 after each re-stimulation.”
as §8
PBMC from a HLA-A2^+ donor with lung cancer were in vitro stimulated with synthetic peptides corresponding to each of the three selected lung cancer epitopes (SEQ ID 82, SEQ ID 34 and SEQ ID 67). […] Interferon-γ producing cells were quantitated using an Immunospot reader. […]

“DQFQKVLSL (listed as Homo sapiens) [SEQ ID 08]”: the “recognition of targets by peptide-specific CTL (Interferon-γ producing cells)” value (from here on “recognition of targets”) in experiment [1] is “recognize peptide loaded targets as well as lung cancer cells”. Besides, the “cytolytic activity of peptide-specific CTL (Granzyme B producing cells)” value (“cytolytic activity” for short) in experiment [2] is reported as “are cytolytic”.
For “GMYGKIAVMEL (listed as Homo sapiens) [SEQ ID 19]” the same measures were “recognize peptide loaded targets as well as lung cancer cells” and “are cytolytic”.
Turning to “KIYQWINEL (listed as Homo sapiens) [SEQ ID 29]”, the “recognition of targets” value in experiment [1] was “recognize peptide loaded targets as well as lung cancer cells”. Further, the “cytolytic activity” value in experiment [2] is listed as “are cytolytic”.
In the case of “KLGEFAKVLEL (listed as Homo sapiens) [SEQ ID 33]”, the “recognition of targets” value in experiment [1] was “recognize peptide loaded targets as well as lung cancer cells”. In addition, the “cytolytic activity” value in experiment [2] was “are cytolytic”.
Consider “KLIPFLEKL (listed as Homo sapiens) [SEQ ID 34]”, for which the “cytolytic activity” value in experiment [3] and in experiment [2] was “are cytolytic” throughout. Also, the “recognition of targets” value in experiment [4] and in experiment [1] was “recognize peptide loaded targets as well as lung cancer cells” in each case.
With “KLSLVAAML (listed as Homo sapiens) [SEQ ID 36]”, the “recognition of targets” value in experiment [1] was “recognize peptide loaded targets as well as lung cancer cells”. For the same sequence, in experiment [2], the “cytolytic activity” value is recorded as “are cytolytic”.
With “RLLEVPVML (listed as Homo sapiens) [SEQ ID 67]”, the “cytolytic activity” value in experiment [3] and in experiment [2] was “are cytolytic” in each case. Further, the “recognition of targets” value in experiment [4] and in experiment [1] was “recognize peptide loaded targets as well as lung cancer cells” throughout.
Take “VLVPVLVMV (listed as Homo sapiens) [SEQ ID 82]”: the “cytolytic activity” value in experiment [3] and in experiment [2] was “are cytolytic” each time. For the same sequence, the “recognition of targets” value in experiment [4] and in experiment [1] was “recognize peptide loaded targets as well as lung cancer cells” in each case.

For the origin of these results see patent US9907842B2, “Cytotoxic T lymphocyte inducing immunogens for prevention treatment and diagnosis of cancer” (Immunotope, Inc., priority 2009, dated 2018).
